Format in all cases: in vivo
One test has as its system thymus. Briefly: Weight and size of the thymus (thymic involution) in old mice. Conditions: old mice (15 months), 500 mg/kg p.o. in drinking water; α-NMN 4 weeks, β-NMN 6 weeks; vs non-treated old mice (FIG. 2). How it is done: The administering of β-NMN at 500 mg/kg, of α-NMN at 500 mg/kg and of the vehicle (water) was obtained via oral route (p.o) in the drinking water to young and old mice. The solutions were prepared by dissolving the powder of β-NMN or α-NMN in the vehicle (water). The study comprised 4 groups each having 6 mice: • Group 1: young mice (aged 10 weeks)+drinking water (vehicle) • Groupe 2: old mice (aged 15 months)+drinking water (vehicle) • Group 3: old mice (aged 15 months)+compound I-B (alpha-NMN) in the drinking water • Group 4: old mice (aged 15 months)+compound I-A (beta-NMN) in the drinking water The water consumption of the mice was assessed per cage every other day. The mice were weighed every week. The mice in Group 3 were sacrificed after 4 weeks for organ collection and characterisation of T cell function. The mice in Group 4 were sacrificed after 6 weeks for organ collection and characterisation of T cell function. On the day of sacrifice, the mice were anaesthetised with Vetoflurane (isoflurane) and blood samples were taken from the retroorbital sinus. The blood was incubated for 30 minutes at ambient temperature and then centrifuged at 1300 g for 10 minutes. […] The thymus was weighed and measured to evaluate involution thereof. […] Measured parameters: The results of flow cytometry are expressed in number or as a proportion of cells per organ. […]

Test [1] has as its system CD4+ T cells producing IFNγ or IL10. Briefly: Cytokine production by splenocytes stimulated with anti-CD3/CD28 beads for 18 h. The note with it: splenocytes of treated old mice, anti-CD3/CD28 beads 18 h (FIG. 10A). Here is the method:
The total splenocytes were stimulated with beads coated with anti-CD3/CD28 for 18 h. As shown in FIGS. 10A and 10B, ageing reduced the proportion of cells producing IFNγ and IL10 when simulated with beads coated with anti-CD3/CD28.

Test [2] relates to old mice (aged 15 months). Put plainly: Study of the effects on immunosenescence in old mice (overall conclusion). The note with it: old mice (15 months), 500 mg/kg p.o. in drinking water; concluding statement. How it is done:
The administering of β-NMN at 500 mg/kg, of α-NMN at 500 mg/kg and of the vehicle (water) was obtained via oral route (p.o) in the drinking water to young and old mice. The solutions were prepared by dissolving the powder of β-NMN or α-NMN in the vehicle (water). The solution was used at ambient temperature for no more than 2 days and was freshly prepared for each new administration. The mice were weighed each week to adapt the dose of the compound to be administered. Throughout the entire phase, a standard food diet and tap water were provided ad libitum. The study comprised 4 groups each having 6 mice: • Group 1: young mice (aged 10 weeks)+drinking water (vehicle) • Groupe 2: old mice (aged 15 months)+drinking water (vehicle) • Group 3: old mice (aged 15 months)+compound I-B (alpha-NMN) in the drinking water • Group 4: old mice (aged 15 months)+compound I-A (beta-NMN) in the drinking water The water consumption of the mice was assessed per cage every other day. The mice were weighed every week. The mice in Group 3 were sacrificed after 4 weeks for organ collection and characterisation of T cell function. The mice in Group 4 were sacrificed after 6 weeks for organ collection and characterisation of T cell function. […] The thymus was weighed and measured to evaluate involution thereof. […]

Test [3] relates to B cells present in the spleen. Briefly: Flow cytometry of B cells in the spleen of old mice. The note with it: 500 mg/kg p.o., 6 weeks. Here is the method:
The administering of β-NMN at 500 mg/kg, of α-NMN at 500 mg/kg and of the vehicle (water) was obtained via oral route (p.o) in the drinking water to young and old mice. The solutions were prepared by dissolving the powder of β-NMN or α-NMN in the vehicle (water). The study comprised 4 groups each having 6 mice: • Group 1: young mice (aged 10 weeks)+drinking water (vehicle) • Groupe 2: old mice (aged 15 months)+drinking water (vehicle) • Group 3: old mice (aged 15 months)+compound I-B (alpha-NMN) in the drinking water • Group 4: old mice (aged 15 months)+compound I-A (beta-NMN) in the drinking water The water consumption of the mice was assessed per cage every other day. The mice were weighed every week. The mice in Group 3 were sacrificed after 4 weeks for organ collection and characterisation of T cell function. The mice in Group 4 were sacrificed after 6 weeks for organ collection and characterisation of T cell function. On the day of sacrifice, the mice were anaesthetised with Vetoflurane (isoflurane) and blood samples were taken from the retroorbital sinus. The blood was incubated for 30 minutes at ambient temperature and then centrifuged at 1300 g for 10 minutes. After sacrificing of the mice, the spleen, thymus, and bone marrow of each animal were removed. The thymus was weighed and measured to evaluate involution thereof. For illustration purposes, photos of the thymus were taken on 5 animals per group. The thymus was divided into two parts: one part was treated with formol for histological examination. The second part was treated for characterisation of the immune cells. For characterisation of the cells, the thymus and spleen were crushed through a sieve of […] over a 50 mL tube with a syringe plunger. The bone marrow was rinsed with RPMI culture medium using a needle and syringe. The cell suspension was then centrifuged at 400 g for 5 minutes at 4° C. Lysis of the red blood cells was also performed before the cell count and use thereof for cytometry. The isolated cells of the spleen, thymus and bone marrow were marked with antibodies in accordance with the following tables to identify the proportion of effector and memory naive T and B cells. The following B cells of the spleen were also examined for characterisation as a function of the combination of proteins on the surface thereof: [table] Measured parameters: The results of flow cytometry are expressed in number or as a proportion of cells per organ. The weight of the thymus is expressed in grams.

As to `NC(=O)c1ccc[n+]([C@@H]2O[C@H](COP(=O)([O-])O)[C@@H](O)[C@H]2O)c1` (stereo in doubt) [I-A, nicotinamide mononucleotide], the “weight and size of the thymus” value in the test with thymus is “significant increase in the size of the thymus”. In addition, the “response to stimulation: proportion of cells producing IFNγ” value in test [1] is reported as “lack of response”. Moreover, the signs of immunosenescence result in test [2] is listed as “significant decrease in the signs of immunosenescence”. Further, the “number of activated B cells in the spleen” value in test [3] (compared with the other groups (FIG. 6B)) is recorded as “increase in the number of activated B cells”. In test [3] (compared with the other groups (FIG. 6C)), the “number of memory B cells in the spleen” value was “increase”. For the same compound, the “number of germinal B cells in the spleen” value in test [3] (compared with the other groups (FIG. 6D)) is “increase”. Besides, in test [3] (compared with the other groups of mice (FIG. 6A)), the “number of B cells in the spleen” value is “significantly increased”.

With `NC(=O)c1ccc[n+]([C@H]2O[C@H](COP(=O)([O-])O)[C@@H](O)[C@H]2O)c1` (stereo in doubt) [I-B, alpha nicotinamide mononucleotide], in the test on thymus, the “weight and size of the thymus” value is given as “did not allow an increase in the volume or size of the thymus”. For the same compound, the “response to stimulation: proportion of cells producing IFNγ” value in test [1] is “the response to stimulation was lower”. Besides, the signs of immunosenescence entry in test [2] is listed as “significant decrease in the signs of immunosenescence”.

These data come from US20230136569A1, “USE OF NMN TO REDUCE IMMUNODEPRESSION AND IMMUNOSENESCENCE” (NUVAMID SA, priority 2020, published 2023).
